Literature values as cited in US7479387B2, “Compositions and methods for the synthesis and subsequent modification of uridine-5′-diphosphosulfoquinovose (UDP-SQ)” (Michigan State University, priority 2000, dated 2009).

What was measured:
[1] = test system: mammalian DNA polymerases; conditions: background statement, Ohta et al. 1998
[2] = biological target: T1, Human Immunodeficiency Virus Reverse Transcriptase 1 (HIV-RT1) (Human immunodeficiency virus type 1 group M subtype B, UniProt P03366); conditions: background statement, Ohta et al. 1998
T1 construct: Human Immunodeficiency Virus Reverse Transcriptase 1 (HIV-RT1)

[3] = test system: tumor promotion; conditions: background statement, Shirahashi et al. 1993

In the case of “6-sulfo-α-D-quinovosyl diacyglycerol [SQDG]”, the “inhibition of several mammalian DNA polymerases” value [1] is given as “potent inhibitor”, the “inhibition of HIV-RT1” value [2] is given as “potent inhibitor” and the anti-tumor promoting properties [3] is given as “anti-tumor promoting properties”.
